These are literature values, as cited in patent US20180110792A1, “COMPOSITIONS AND METHODS FOR INHIBITING GLYCATION REACTIONS” (Access Business Group International LLC, priority 2016, published 2018).

The conditions of this data set: human, in vivo.

Turning to `N=C(N)NN` [aminoguanadine], the “adverse effects in clinical trials” value is given as “demonstrated adverse effects in clinical trials”.
